Reference: patent publication US20220235343A1, “NOVEL ADP-RIBOSYL CYCLASE AND INHIBITOR THEREOF” (INDUSTRIAL COOPERATION FOUNDATION CHONBUK NATIONAL …, priority 2019, published 2022)

Target: T1, new ADP-ribosyl cyclase (ADPRC) of SEQ ID NO 1 (Mus musculus, UniProt P14094)
T1 construct: FLAG (N); made in house; host or cells: HEK293 cells or MES13 cells (transient transfection)
Assay: Inhibition of NAD glycohydrolase (NADase) activity of new ADPRC
Format: biochemical
Conditions: as compared to the control group; ε-NAD substrate, 37° C. 1 hour; inhibitor concentration not given; FIG. 5
Experimental: In order to investigate the ADP-ribosyl cyclase (ADPRC) activity of SEQ ID NO 1, a FLAG-ADPRC plasmid was prepared by ligating a cDNA sequence encoding ADPRC into a FLAG-CMV-2 vector and the overexpression of new ADPRC was induced by treating HEK293 cells or MES13 cells using a transfection reagent. The overexpressed new ADPRC was lysed with a lysis buffer. 45 μL of the lysed sample was treated with 5 μL of 2 mM ε-NAD (nicotinamide 1,N6-ethenoadenine dinucleotide) and incubated at 37° C. for 1 hour. Then, the enzyme-substrate reaction was stopped by treating with 50 μL of 10% trichloroacetic acid. After centrifuging for 10 minutes and adding 80 μL of the supernatant to 720 μL of 0.1 M sodium phosphate buffer, absorbance was measured at 297 nm (excitation) and 410 nm (emission) with a fluorescence spectrometer.
In order to find an inhibitor which inhibits the activation of new ADP-ribosyl cyclase (ADPRC) of SEQ ID NO 1, 5 μL of each of 4,4′-dihydroxyazobenzene (4-DHAB, TCI (Japan)), 2,2′-dihydroxyazobenzene (2-DAB, Sigma-Aldrich (USA)), 2-(3,4-dihydroxyphenyl)-3,5,7-trihydroxychromen-4-one (Quercetin, Sigma-Aldrich (USA)) and San4825 (synthesized by Kannt A et al. [Kannt A, Sicka K, Kroll K, Kadereit D, Gogelein H. Naunyn. Schmiedebergs. Arch. Pharmacol. 385: 717-727, 2012], China) and 2-(1,3-benzoxazol-2-ylamino)-1-methylquinazoline-4(1H)-one (2-BMQ) and 1,4-dicaffeoylquinic acid (1,4-DCQA, Biopurify (China), hereinafter DCQA), which were newly found through screening, was reacted with 40 μL of new ADPRC in iced water for 15 minutes. Then, reaction was conducted at 37° C. for 1 hour after treating with 5 μL of 2 mM ε-NAD (nicotinamide 1,N6-ethenoadenine dinucleotide). Then, the enzyme-substrate reaction was stopped by treating with 50 μL of 10% trichloroacetic acid. After centrifuging for 10 minutes and adding 80 μL of the supernatant to 720 μL of 0.1 M sodium phosphate buffer, absorbance was measured at 297 nm (excitation) and 410 nm (emission) using a fluorescence spectrometer.

Structure (SMILES)	NAD glycohydrolase (NADase) activity inhibited [%]
Cn1c(Nc2nc3ccccc3o2)nc(=O)c2ccccc21 [2-BMQ, 2-(1,3-benzoxazol-2-ylamino)-1-methylquinazoline-4(1H)-one]	36.49
Oc1ccc(N=Nc2ccc(O)cc2)cc1 [4-DHAB, 4,4′-dihydroxyazobenzene]	42.40
